Common to all, as to assay: Large panel kinase profiling
Holding throughout (assay type): biochemical
What all share (conditions): 1 μM test article, 1 mM ATP

One experiment addresses T1, FLT3 (Homo sapiens, UniProt P36888).
T1 construct: AssayQuant Technologies, Inc. (service provider)
T1 sequence (P36888 27-993): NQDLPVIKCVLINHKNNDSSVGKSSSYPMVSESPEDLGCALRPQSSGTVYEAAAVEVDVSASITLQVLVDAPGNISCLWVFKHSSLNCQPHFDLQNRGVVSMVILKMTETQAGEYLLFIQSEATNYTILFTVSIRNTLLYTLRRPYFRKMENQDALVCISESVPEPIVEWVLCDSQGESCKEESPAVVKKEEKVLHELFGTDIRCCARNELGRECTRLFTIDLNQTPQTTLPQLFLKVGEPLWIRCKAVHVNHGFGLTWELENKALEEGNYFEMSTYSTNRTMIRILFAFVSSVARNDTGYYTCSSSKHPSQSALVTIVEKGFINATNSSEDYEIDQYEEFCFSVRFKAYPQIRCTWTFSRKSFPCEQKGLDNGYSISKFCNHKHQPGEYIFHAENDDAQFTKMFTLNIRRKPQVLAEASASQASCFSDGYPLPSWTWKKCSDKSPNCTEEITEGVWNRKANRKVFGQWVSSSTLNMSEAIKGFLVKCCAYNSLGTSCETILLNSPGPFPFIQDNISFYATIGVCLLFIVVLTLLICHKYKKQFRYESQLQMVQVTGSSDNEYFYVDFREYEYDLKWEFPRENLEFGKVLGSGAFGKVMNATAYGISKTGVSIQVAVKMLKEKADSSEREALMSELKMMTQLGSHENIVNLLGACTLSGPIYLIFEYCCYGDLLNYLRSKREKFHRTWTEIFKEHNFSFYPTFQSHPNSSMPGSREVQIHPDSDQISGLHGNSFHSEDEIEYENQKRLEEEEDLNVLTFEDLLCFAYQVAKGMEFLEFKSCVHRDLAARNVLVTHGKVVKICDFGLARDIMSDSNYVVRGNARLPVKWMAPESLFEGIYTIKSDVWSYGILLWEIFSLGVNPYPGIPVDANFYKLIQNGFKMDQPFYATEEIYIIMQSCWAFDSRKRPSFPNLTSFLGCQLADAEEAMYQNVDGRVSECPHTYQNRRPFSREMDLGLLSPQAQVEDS
A digest of the protocol: (§1)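 Profiling across the panel relied on the PhosphoSens CSox-Sensor format. A compound concentration of 1 μM and an ATP level of 1 mM were used throughout.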

Another experiment deals with T2, GRK3 (Homo sapiens, UniProt P35626).
T2 construct: AssayQuant Technologies, Inc. (service provider)
T2 sequence (P35626 1-688): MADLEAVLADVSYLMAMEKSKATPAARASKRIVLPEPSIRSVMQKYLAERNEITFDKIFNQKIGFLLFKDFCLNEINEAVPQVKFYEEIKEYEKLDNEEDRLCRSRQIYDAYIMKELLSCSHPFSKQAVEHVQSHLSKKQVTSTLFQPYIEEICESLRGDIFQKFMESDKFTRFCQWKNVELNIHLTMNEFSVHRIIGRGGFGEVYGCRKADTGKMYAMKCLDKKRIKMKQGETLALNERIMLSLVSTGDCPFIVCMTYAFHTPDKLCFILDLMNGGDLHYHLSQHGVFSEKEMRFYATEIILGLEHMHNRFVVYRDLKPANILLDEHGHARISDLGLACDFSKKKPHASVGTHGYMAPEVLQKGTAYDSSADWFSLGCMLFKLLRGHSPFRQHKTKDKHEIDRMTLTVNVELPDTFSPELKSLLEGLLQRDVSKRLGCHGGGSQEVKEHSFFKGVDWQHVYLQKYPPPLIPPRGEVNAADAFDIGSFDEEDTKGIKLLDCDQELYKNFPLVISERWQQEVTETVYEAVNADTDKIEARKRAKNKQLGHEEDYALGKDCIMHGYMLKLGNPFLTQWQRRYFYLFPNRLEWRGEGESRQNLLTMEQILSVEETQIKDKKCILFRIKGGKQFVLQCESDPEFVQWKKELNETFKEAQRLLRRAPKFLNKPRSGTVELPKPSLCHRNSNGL
The method in brief:
as §1

A further experiment concerns the target T3, IRAK4 (Homo sapiens, UniProt Q9NWZ3).
T3 sequence (Q9NWZ3 1-460): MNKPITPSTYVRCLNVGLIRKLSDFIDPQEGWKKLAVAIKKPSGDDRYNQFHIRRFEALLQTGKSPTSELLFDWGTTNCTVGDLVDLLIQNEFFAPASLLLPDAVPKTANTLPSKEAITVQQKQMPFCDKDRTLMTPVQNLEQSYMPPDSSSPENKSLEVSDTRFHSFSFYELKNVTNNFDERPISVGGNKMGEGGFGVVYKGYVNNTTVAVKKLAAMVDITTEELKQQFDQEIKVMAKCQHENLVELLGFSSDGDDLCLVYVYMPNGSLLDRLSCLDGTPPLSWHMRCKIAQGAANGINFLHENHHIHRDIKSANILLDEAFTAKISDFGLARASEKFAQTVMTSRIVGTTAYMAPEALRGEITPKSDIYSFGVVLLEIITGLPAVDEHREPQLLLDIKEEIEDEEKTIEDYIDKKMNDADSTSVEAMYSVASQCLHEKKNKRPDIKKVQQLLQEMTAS
The method in brief:
as §1

The next experiment deals with LCK (Homo sapiens, UniProt P06239). A digest of the protocol: as §1
Sequence of LCK (P06239 whole entry, species assumed): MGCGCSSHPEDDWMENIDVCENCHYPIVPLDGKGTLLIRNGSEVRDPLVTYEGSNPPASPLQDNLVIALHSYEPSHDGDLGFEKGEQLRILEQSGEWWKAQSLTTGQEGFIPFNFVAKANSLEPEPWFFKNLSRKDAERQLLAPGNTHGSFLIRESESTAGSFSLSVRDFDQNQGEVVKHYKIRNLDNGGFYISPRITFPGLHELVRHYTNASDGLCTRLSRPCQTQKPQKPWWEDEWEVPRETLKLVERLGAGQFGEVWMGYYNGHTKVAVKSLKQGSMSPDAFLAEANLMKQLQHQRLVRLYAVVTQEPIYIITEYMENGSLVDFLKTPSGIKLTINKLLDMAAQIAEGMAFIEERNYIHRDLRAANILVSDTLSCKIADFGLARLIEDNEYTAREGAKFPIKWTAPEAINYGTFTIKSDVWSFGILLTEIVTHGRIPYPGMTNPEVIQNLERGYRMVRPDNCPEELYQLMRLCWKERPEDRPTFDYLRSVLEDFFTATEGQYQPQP
For a further experiment, the target named is T4, MAP3K9 (Homo sapiens, UniProt P80192).
T4 construct: AssayQuant Technologies, Inc. (service provider)
T4 sequence (P80192 whole entry, species assumed): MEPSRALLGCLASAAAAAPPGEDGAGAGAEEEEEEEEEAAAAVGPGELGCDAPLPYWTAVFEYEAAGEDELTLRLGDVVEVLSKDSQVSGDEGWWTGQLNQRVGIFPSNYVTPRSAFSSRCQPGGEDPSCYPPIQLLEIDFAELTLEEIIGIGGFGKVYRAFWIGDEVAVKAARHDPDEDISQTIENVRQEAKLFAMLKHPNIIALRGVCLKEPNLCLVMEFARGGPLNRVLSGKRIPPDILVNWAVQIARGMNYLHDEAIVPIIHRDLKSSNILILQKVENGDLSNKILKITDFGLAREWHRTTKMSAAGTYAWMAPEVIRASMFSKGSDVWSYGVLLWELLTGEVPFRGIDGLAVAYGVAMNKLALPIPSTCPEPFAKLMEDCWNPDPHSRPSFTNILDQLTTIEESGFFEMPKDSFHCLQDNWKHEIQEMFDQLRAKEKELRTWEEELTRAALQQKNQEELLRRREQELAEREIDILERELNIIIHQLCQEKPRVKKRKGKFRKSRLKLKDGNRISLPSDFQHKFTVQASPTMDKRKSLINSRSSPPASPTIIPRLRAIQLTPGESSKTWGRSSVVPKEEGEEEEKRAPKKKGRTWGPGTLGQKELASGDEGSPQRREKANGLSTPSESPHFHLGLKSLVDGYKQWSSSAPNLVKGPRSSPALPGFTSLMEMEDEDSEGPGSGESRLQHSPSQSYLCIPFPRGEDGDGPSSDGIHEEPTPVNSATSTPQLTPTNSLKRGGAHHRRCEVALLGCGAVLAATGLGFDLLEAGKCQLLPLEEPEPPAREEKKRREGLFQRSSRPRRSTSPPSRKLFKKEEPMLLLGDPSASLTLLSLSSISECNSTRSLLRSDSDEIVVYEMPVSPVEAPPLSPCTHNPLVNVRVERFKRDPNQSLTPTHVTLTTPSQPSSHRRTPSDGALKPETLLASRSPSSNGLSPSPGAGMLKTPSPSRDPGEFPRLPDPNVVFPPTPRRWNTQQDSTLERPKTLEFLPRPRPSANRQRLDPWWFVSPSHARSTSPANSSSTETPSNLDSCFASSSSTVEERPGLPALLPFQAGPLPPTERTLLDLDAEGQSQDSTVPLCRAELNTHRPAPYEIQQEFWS
The method in brief:
as §1

The target in the next experiment is PRKAA2/AMPK211 (Homo sapiens, UniProt P54646). The method in brief:
as §1

The target in another experiment is PRKAA2/AMPK221 (Homo sapiens, UniProt P54646). A digest of the protocol:
as §1

Another experiment concerns the target ROCK2 (Homo sapiens, UniProt O75116). The method in brief: as §1
For a further experiment, the target named is T5, RPS6KA4/MSK2 (Homo sapiens, UniProt O75676).
T5 construct: AssayQuant Technologies, Inc. (contract assay)
T5 sequence (O75676 whole entry): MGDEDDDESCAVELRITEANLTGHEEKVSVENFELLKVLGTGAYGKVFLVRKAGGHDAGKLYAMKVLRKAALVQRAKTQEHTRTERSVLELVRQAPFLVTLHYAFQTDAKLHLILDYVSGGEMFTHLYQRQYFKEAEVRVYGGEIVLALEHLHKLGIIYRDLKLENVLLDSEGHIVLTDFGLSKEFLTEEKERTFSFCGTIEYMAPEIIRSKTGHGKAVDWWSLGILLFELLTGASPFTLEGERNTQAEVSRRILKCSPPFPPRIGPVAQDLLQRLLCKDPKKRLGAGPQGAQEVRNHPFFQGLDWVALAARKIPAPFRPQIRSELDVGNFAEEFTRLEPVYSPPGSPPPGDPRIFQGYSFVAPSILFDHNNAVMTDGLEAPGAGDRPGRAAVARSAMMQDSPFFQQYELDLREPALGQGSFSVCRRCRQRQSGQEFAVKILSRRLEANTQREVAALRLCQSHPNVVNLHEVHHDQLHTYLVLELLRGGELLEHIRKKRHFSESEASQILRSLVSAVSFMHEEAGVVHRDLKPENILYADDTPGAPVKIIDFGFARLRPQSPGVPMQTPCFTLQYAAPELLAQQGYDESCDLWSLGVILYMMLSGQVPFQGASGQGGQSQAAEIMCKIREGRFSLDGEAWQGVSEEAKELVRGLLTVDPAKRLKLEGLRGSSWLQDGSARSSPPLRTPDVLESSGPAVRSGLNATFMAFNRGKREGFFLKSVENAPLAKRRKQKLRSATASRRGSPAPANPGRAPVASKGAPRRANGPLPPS
A digest of the protocol:
as §1

What is called inhibition is the relative decrease from the control value, in per cent.

Sequence of PRKAA2/AMPK221 (P54646 whole entry, species assumed): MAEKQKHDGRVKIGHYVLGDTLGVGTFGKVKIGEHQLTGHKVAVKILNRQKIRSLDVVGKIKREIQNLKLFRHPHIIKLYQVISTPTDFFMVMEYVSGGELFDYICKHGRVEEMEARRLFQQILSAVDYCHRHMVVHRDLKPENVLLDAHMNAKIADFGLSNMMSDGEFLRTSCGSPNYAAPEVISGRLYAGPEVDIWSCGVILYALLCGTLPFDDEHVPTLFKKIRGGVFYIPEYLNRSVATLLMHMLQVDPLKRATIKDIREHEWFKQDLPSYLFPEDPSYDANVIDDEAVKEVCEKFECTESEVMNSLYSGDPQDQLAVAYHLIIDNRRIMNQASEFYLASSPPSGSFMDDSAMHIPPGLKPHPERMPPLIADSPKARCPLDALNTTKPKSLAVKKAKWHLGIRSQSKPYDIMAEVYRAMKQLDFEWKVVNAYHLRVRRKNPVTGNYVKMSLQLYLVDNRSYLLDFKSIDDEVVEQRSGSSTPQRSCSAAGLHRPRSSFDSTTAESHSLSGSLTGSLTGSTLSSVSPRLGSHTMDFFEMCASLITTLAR
Sequence of PRKAA2/AMPK221 (O43741 whole entry partner, species assumed): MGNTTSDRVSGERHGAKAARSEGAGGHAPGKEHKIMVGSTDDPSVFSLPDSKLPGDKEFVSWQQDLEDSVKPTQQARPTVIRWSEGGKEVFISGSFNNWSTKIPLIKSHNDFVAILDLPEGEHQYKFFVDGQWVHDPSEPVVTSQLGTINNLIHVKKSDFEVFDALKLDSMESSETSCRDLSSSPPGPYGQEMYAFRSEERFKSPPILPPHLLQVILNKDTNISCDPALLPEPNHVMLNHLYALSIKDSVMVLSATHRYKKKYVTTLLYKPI
Sequence of PRKAA2/AMPK221 (P54619 whole entry partner, species assumed): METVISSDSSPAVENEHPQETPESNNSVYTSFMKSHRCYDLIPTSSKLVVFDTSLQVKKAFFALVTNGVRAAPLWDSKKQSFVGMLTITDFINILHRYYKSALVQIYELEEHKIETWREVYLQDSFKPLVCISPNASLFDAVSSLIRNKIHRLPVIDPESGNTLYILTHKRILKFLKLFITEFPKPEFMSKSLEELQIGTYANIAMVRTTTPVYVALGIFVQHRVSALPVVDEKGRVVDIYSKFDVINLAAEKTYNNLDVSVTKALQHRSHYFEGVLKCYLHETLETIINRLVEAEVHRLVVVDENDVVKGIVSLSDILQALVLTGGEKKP
Sequence of PRKAA2/AMPK211 (P54646 whole entry, species assumed): as the sequence (P54646 whole entry, species assumed) above
Sequence of PRKAA2/AMPK211 (Q9Y478 whole entry partner, species assumed): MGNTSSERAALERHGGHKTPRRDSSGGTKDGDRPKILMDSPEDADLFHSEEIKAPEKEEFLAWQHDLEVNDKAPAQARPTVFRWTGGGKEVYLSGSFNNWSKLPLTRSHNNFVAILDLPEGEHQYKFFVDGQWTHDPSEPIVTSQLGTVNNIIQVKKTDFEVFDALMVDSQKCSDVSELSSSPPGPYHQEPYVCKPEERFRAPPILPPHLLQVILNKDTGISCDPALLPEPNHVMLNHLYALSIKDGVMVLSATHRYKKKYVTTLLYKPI
Sequence of PRKAA2/AMPK211 (P54619 whole entry partner, species assumed): as the sequence (P54619 whole entry partner, species assumed) above

In the case of `C=CC(=O)N1CCCC(c2c(F)cc(C(N)=O)c3[nH]c4c(c23)CCCCC4)C1` (single isomer, unassigned) [Compound 5-6], the inhibition at 1 µM against FLT3 was 2.2%; on GRK3 it was -25.6%; at IRAK4, -4.7%; on LCK, 0.2%; on MAP3K9, -0.9%; against PRKAA2/AMPK211, -24.4%. Also, the inhibition at 1 µM on PRKAA2/AMPK221 is -17.9%; against ROCK2, -28.3%; against RPS6KA4/MSK2, -6.1%.

Regarding `C=CC(=O)N1CCC[C@@H](c2c(F)cc(C(N)=O)c3[nH]c4c(c23)CC2(CC4)CC2)C1` [Compound 6-2, (S)-5-(1-acryloylpiperidin-3-yl)-6-fluoro-1,2,4,9-tetrahydrospiro[carbazole-3,1′-cyclopropane]-8-carboxamide], the inhibition at 1 µM is -9.4% against FLT3; -48.3% against GRK3; 4.1% against IRAK4; 15.9% against LCK; 28.8% against MAP3K9; 28.8% against PRKAA2/AMPK211. Besides, the inhibition at 1 µM at PRKAA2/AMPK221 was 11.7%; against ROCK2 it was 0.8%; on RPS6KA4/MSK2, -23.2%.

Turning to `C=CC(=O)N1CCC[C@@H](c2c(F)cc(C(N)=O)c3[nH]c4c(c23)CCC4)C1` [Compound 10-2, (S)-8-(1-acryloylpiperidin-3-yl)-7-fluoro-1,2,3,4-tetrahydrocyclo-penta[b]indole-5-carboxamide], the inhibition at 1 µM at FLT3 was -4.6%; on GRK3 it was -42.7%; at IRAK4 it was -9.2%; against LCK, 18.3%; on MAP3K9, 12.3%; on PRKAA2/AMPK211, 36.6%. For the same compound, the values for the inhibition at 1 µM at PRKAA2/AMPK221, against ROCK2 and against RPS6KA4/MSK2 were 32.1%, 21.2% and -21.2%, respectively.

The values above are taken from patent publication US20220009920A1 (GB005, Inc., priority 2020, published 2022).
